Test results as given in patent US12428455B2, “Dominant negative CEBPB and CEBPD proteins and methods of use for decreasing viability of neoplastic cells” (The Trustees of Columbia University in the City of New York, priority 2018, dated 2025).
No end group written: not given here.

Experiments:
Format in all cases: cell-based
HCT116 cells = assay: Combination with chloroquine, cell number, HCT116; conditions: 5 μM or 10 μM chloroquine and 3 μM or 10 μM peptide, 6 days
Experimental: Replicate cultures of T98G, MDA-MB 231, and HCT116 cells were treated with 5 μM or 10 μM chloroquine and 3 μM or 10 μM CP-dn-CEBPB and CP-dn-CEBPD peptides, maintained for 6 days, and then assessed for cell number. The bar graphs of FIGS. 29A (T98G, CP-dn-CEBPB), 29C (T98G, CP-dn-CEBPBD, 29E (MDA-MB-231, CP-dn-CEBPBD), 29G (MDA-MB-231, CP-dn-CEBPD), 29I (HCT116, CP-dn-CEBPBB), and 26K (HCT116, CP-dn-CEBPBD) show relative cell numbers for each condition as compared to untreated controls. The line graphs of FIGS. 26B (T98G, CP-dn-CEBPB), 26D (T98G, CP-dn-CEBPBD), 26F (MDA-MB-231, CP-dn-CEBPB), 26H (MDA-MB-231, CP-dn-CEBPD), 26J (HCT116, CP-dn-CEBPB), and 26L (HCT116 CP-dn-CEBPBD) show the response as normalized in each case so that 100 represents the relative number of surviving cells that received the indicated level of chloroquine, but no peptide treatment. The results ranged from near-additive (HCT116 cells, CI=0.92±0.08 for CP-dn-CEBPB and 0.87±0.07 for CP-dn-CEBPD) to apparent synergy (T98G, CI=0.56±0.06 for CP-dn-CEBPB and 0.75±0.03 for CP-dn-CEBPD; MDA-MB-261, CI=0.59±0.11 for CP-dn-CEBPB and 0.47±0.05 for CP-dn-CEBPD).

T98G and HCT116 cells = assay: Combination with gamma radiation, overall conclusion; conditions: 2 Gy or 5 Gy; immediate or delayed peptide treatment
Experimental: Replicate cultures of T98G and HCT116 cells were exposed to 2 Gy or 5 Gy of gamma radiation. Immediately, the cultures were treated with 3 μM, 10 μM, or 20 μM CP-dn-CEBPB and CP-dn-CEBPD peptides, maintained for 6 days, and then assessed for cell number. […]
Replicate cultures of T98G and HCT116 cells were exposed to 2 Gy or 5 Gy of gamma radiation. One day later, the cultures were treated with 0.05 μM, 0.5 μM, or 5 μM CP-dn-CEBPB and CP-dn-CEBPD peptides, maintained for 6 days, and then assessed for cell number. The bar graphs of FIGS. 24A (T98G, CP-dn-CEBPB), 24C (T98G, CP-dn-CEBPBD, 24E (HCT116, CP-dn-CEBPD), and 24G (HCT116, CP-dn-CEBPD) show relative cell numbers for each condition as compared to untreated controls. The line graphs of FIGS. 24B (T98G, CP-dn-CEBPB), 24D (T98G, CP-dn-CEBPBD, 24F (HCT116, CP-dn-CEBPB), and 24H (HCT116, CP-dn-CEBPD) show the response as normalized in each case so that 100 represents the relative number of surviving cells that received the indicated level of radiation treatment, but no peptide treatment. Calculated Combination Indexes (CI) are T98G, CI=0.61±0.05 for CP-dn-CEBPB, 0.68±0.07 for CP-dn-CEBPD; HCT116, 0.89±0.04 for CP-dn-CEBPB, 0.86±0.05 for CP-dn-CEBPD. […]

T98G cells = assay: Colony forming activity in soft agar, T98G; conditions: 6 days; doses 0.05, 0.5 and 5 μM
Experimental: T98G (FIG. 21A), MDA-MB 231 (FIG. 21B), and HCT116 (FIG. 21C) cells were exposed to CP-DN-CEBPB and CP-DN-CEBPD for 6 days at doses of 0.05 μM 0.5 μM, and 5 μM while growing in soft agar. Growth was inhibited by does as low as 0.5 μM. T98G (FIG. 21D), MDA-MB 231 (FIG. 21E), and HCT116 (FIG. 21F) cells were exposed to CP-DN-CEBPB and CP-DN-CEBPD for 6 days at doses of 0.05 μM 0.5 μM, and 5 μM while growing on culture plates. Growth was inhibited by does as low as 0.5 μM.

A549 lung cancer cells = assay: Cell number after peptide treatment, A549; conditions: 6 days, 0 μM to 50 μM; stock without BSA
Experimental: Replicate cultures of MDA-MB-468 breast cancer cells, A549 lung cancer cells and 293T transformed embryonic kidney cells were exposed to CP-DN-CEBPB or CP-DN-CEBPD, for 6 days at doses of 0 μM to 50 μM. […] Stock solutions of the peptides were prepared in buffer without added bovine serum albumin (BSA).

Sequence | CI with chloroquine (HCT116 cells) | kind of combined effect with gamma radiation (T98G and HCT116 cells) | lowest dose at which growth was inhibited, soft agar (T98G cells) [µM] | number of A549 cells (A549 lung cancer cells)
RQIKIWFQNRRMKWKKLETQHKVLELTAENERLQKKVEQLSRELSTLRNLFKQL [CP-DN-CEBPB] | 0.92±0.08 | synergistic effect | 0.5 | dose-dependent decrease in the number
RQIKIWFQNRRMKWKKLVELSAENEKLHQRVEQLTRDLAGLRQFFK [CP-DN-CEBPD] | 0.87±0.07 | synergistic effect | 0.5 | dose-dependent decrease in the number
